Results: patent publication US20160030510A1, “METHODS OF TREATING ALZHEIMER'S DISEASE AND OTHER TAUOPATHIES WITH INHIBITORS OF MICROTUBULE AFFINITY REGULATING KINASE” (The Board of Trustees of the Leland Stanford Junior …, priority 2012, published 2016)
Where a SMILES comes first, the peptide text is derived from it.

Experiments:
5×FAD mouse = assay: Activity Chamber assay in 5×FAD Alzheimer's disease mouse model; assay type: in vivo; conditions: 5×FAD mice, daily IP for 5 days, FIGS. 11A-11H
Text: The 5×FAD mouse, a well-accepted transgenic model of Alzheimer's disease, was used to test the therapeutic efficacy of MKI-TAT in vivo. The 5×FAD model mouse overexpresses APP with the K670N/M671L (Swedish mutation), I716V (Florida mutation), and V717I (London mutation), and PS1 with the M146L and L286V mutations. […] These defects were rescued by the daily delivery of MKI-TAT through IP for 5 days. At the end of the 5 day treatment, the wild type animals treated with vehicle, and 5×FAD mice treated with vehicle or MKI-TAT were subjected to the Activity Chamber assay. Total ambulatory count (FIG. 11A), total stereotypic count (FIG. 11B), total vertical count (FIG. 11C), total session time (FIG. 11D), total ambulatory time (FIG. 11E), total stereotypic time (FIG. 11F), total vertical time (FIG. 11G), and total zone entry (FIG. 11H) were evaluated.
Activity Chamber assays were performed to evaluate the effects of MKI-TAT in rescuing motor behavioral defects in an Alzheimer's disease mouse model. The 5×FAD mouse, a well-accepted transgenic model of Alzheimer's disease, was used to test the therapeutic efficacy of MKI-TAT in vivo. The 5×FAD model mouse overexpresses APP with the K670N/M671L (Swedish mutation), I716V (Florida mutation), and V717I (London mutation), and PS1 with the M146L and L286V mutations. […]

Human MARK4 = molecular target: T1, Human MARK4 (Homo sapiens, UniProt Q96L34); assay: In vitro kinase assay of MARK4 phosphorylating tau (Western blot); assay type: biochemical; conditions: human MARK4 and tau affinity-purified from HEK293 cells, FIG. 7
T1 construct: made in house; host or cells: HEK293 cells
T1 sequence (Q96L34 1-752): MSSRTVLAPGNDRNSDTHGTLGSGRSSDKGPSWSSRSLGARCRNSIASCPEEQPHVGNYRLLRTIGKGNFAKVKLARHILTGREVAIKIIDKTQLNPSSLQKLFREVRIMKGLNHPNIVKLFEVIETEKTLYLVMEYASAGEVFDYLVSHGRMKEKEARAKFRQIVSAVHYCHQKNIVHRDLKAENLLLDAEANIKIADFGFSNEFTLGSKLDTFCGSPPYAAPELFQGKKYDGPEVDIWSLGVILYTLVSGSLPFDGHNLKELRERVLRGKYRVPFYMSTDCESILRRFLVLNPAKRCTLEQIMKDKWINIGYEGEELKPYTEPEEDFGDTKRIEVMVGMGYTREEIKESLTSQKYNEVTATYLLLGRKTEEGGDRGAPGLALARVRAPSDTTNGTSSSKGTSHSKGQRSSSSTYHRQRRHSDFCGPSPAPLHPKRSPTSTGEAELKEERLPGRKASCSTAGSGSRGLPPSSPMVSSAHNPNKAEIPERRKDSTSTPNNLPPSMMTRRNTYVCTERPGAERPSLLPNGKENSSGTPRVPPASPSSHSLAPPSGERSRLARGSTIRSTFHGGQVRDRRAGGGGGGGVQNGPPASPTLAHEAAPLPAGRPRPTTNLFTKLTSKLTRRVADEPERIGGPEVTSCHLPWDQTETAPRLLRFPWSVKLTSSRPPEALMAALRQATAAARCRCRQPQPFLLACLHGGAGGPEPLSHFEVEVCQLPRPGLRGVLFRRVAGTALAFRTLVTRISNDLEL
Text: Both human MARK4 and tau proteins were expressed in HEK293 cells and affinity-purified by immunoprecipitation. After in vitro kinase reaction in the presence or absence of the peptides, the reaction mixtures were separated on SDS-PAGE to separate the proteins, and the levels of total tau and phospho-tau generated by MARK4 were detected by Western blot analysis. The TAT peptide was used as a negative control. Note the inhibition of MARK4-mediated tau phosphorylation by both TAT-MKI and MKI-TAT.
We next tested the ability of the TAT-MKI and MKI-TAT fusions to inhibit the activity of MARK4 kinase in phosphorylating the tau protein (FIG. 7). Human MARK4 and tau proteins were expressed in HEK293 cells and affinity-purified by immunoprecipitation. In vitro kinase reactions were performed in the presence or absence of the TAT-MKI and MKI-TAT fusion peptides and the levels of total tau and phospho-tau generated by MARK4 were detected by Western blot analysis. The TAT peptide was used as a negative control. Both the TAT-MKI and MKI-TAT fusion peptides inhibited MARK4-mediated tau phosphorylation in vitro.

[1] = system: MARK4-mediated tau phosphorylation; assay: Tau phosphorylation in brain of mouse PS19 transgenic tauopathy model (P301S mutant human tau); assay type: in vivo; conditions: PS19 mice, IP 40 mg/kg/day for 5 days, FIG. 10
Protocol: Three PS19 transgenic mice (ID number: 9, 10, 11) were subjected to daily IP injection with MKI-TAT peptide (dissolved in 100% DMSO, 40 mg/kg/day) for 5 days. At the end of 5-day injection, the animals were anesthetized with 4% isoflurine and decapitated. The brain tissues were collected immediately, flash-frozen in liquid nitrogen and stored at −80° C. For analysis of effect of MKI-TAT on tau phosphorylation, brain tissues were homogenized in lysis buffer, separated on SDS-PAGE, and probed with the indicated antibodies.
Three PS19 transgenic mice (ID number: 9, 10, 11) were subjected to daily intraperitoneal injection with MKI-TAT peptide (dissolved in 100% DMSO, 40 mg/kg/day) for 5 days. At the end of the 5-day injection period, the animals were anesthetized with 4% isoflurine and decapitated. The brain tissues were collected immediately, flash-frozen in liquid nitrogen, and stored at −80° C. For analysis of the effects of MKI-TAT on tau phosphorylation, brain tissues were homogenized in lysis buffer, separated on SDS-PAGE, and probed with antibodies against pS262-tau, PHF-1, tau, and actin.

In the case of CC(=O)NCC(=O)N[C@@H](Cc1ccccc1)C(=O)N1CCC[C@H]1C(=O)N[C@@H](CC(C)C)C(=O)N[C@@H](CCCCN)C(=O)N[C@@H](CCCNC(=N)N)C(=O)N[C@@H](Cc1c[nH]cn1)C(=O)N[C@@H](CC(=O)O)C(=O)NCC(=O)N[C@H](C(=O)N[C@@H](CC(=O)O)C(=O)N[C@@H](CC(=O)O)C(=O)N[C@@H](CC(C)C)C(=O)N[C@@H](CO)C(=O)N[C@@H](CCCCN)C(=O)N[C@H](C(=O)NCC(=O)NCC(=O)N[C@@H](Cc1ccc(O)cc1)C(=O)NCC(=O)N[C@@H](CCCNC(=N)N)C(=O)N[C@@H](CCCCN)C(=O)N[C@@H](CCCCN)C(=O)N[C@@H](CCCNC(=N)N)C(=O)N[C@@H](CCCNC(=N)N)C(=O)N[C@@H](CCC(N)=O)C(=O)N[C@@H](CCCNC(=N)N)C(=O)N[C@@H](CCCNC(=N)N)C(=O)N[C@@H](CCCNC(=N)N)C(N)=O)C(C)C)C(C)C [MKI-TAT] (Ac-GFPLKRHDGVDDLSKVGGYGRKKRRQRRR-NH2), the “motor behavioral defects (time in zones, average velocity, rearing time, session time, zone entry)” value (5×FAD mouse) is reported as “rescued”, the “MARK4-mediated tau phosphorylation in vitro” value (Human MARK4) is reported as “inhibited” and the “Phospho-tau recognized by the PHF-1 antibody in brain” value [1] is reported as “reduced”. The “level of MARK4-mediated tau phosphorylation recognized by the pS262-tau antibody in brain” value [1] was “significantly reduced” and the “total tau level in brain” value [1] was “largely unchanged”.
